Blank lines part the entries; values can stand above or below the compound they belong to.
Columns and labels:
[1] = tested on: Phosphodiesterase 3 (Canis lupus familiaris); assay: In vitro inhibition of cAMP Phosphodiesterase 3 at a concentration of 10 uM
[2] = tested on: Phosphodiesterase 3 (Canis lupus familiaris); assay: In vitro inhibition of cAMP PDE III by the compound at a concentration of 10 uM
[3] = molecular target: Phosphodiesterase 3 (Canis lupus familiaris); assay: In vitro inhibitory activity against cAMP PDE III.
[4] = tested on: Phosphodiesterase 3 (Canis lupus familiaris); assay: Inhibition of cAMP Phosphodiesterase 3 at 10 uM
[5] = molecular target: Phosphodiesterase 3 (Canis lupus familiaris); assay: Inhibition of cAMP PDE 3
[6] = tested on: Phosphodiesterase 3 (Canis lupus familiaris); assay: Inhibition of cAMP PDE 3 at 10 uM
[7] = molecular target: Phosphodiesterase 3 (Canis lupus familiaris); assay: Inhibition of cAMP Phosphodiesterase 3
[8] = molecular target: Phosphodiesterase 3 (Canis lupus familiaris); assay: Inhibition of cAMP PDE 3; remark: listed apart in the source

SMILES: Cc1cc2cnccc2nc1O
inhibition [1]: 37%

SMILES: Oc1ccc2cnccc2n1
inhibition [2]: 55% | IC50 [3]: 18800 nM

SMILES: Oc1ccc2c(-c3ccc(Br)cc3)nccc2n1
inhibition [1]: 55%

SMILES: Oc1ccc2c(-c3ccc(F)cc3)nccc2n1
inhibition [2]: 78% | IC50 [3]: 940 nM

SMILES: Cc1nccc2nc(O)c(C(N)=O)cc12
inhibition [1]: 39%

SMILES: Cc1nccc2nc(O)c(C#N)cc12
inhibition [1]: 52%

SMILES: Cc1nccc2nc(Cl)ccc12
inhibition [4]: 18%

SMILES: Cc1nccc2[nH]c(=O)ccc12 [MEDORINONE]
IC50 [5]: 550 nM | inhibition [6]: 67%

SMILES: Cc1nccc2nc(S)ccc12
IC50 [7]: 960 nM | inhibition [1]: 81%

SMILES: Oc1ccc2c(-c3ccc(Cl)cc3)nccc2n1
inhibition [2]: 78% | IC50 [3]: 300 nM

SMILES: Cn1c(=O)ccc2c(-c3ccccc3)nccc21
inhibition [1]: 36%

SMILES: Cc1c2ccc(=O)[nH]c2cc[n+]1[O-]
inhibition [2]: 65% | IC50 [3]: 3100 nM

SMILES: COc1ccc2c(C)nccc2n1
inhibition [1]: 21%

SMILES: Cc1nccc2nc(O)c(N)cc12
inhibition [1]: 59%

SMILES: Cc1nccc2nc(N)ccc12
inhibition [1]: 24%

SMILES: Cc1cc2nc(O)ccc2cn1
inhibition [1]: 53%

SMILES: Cc1nccc2nc(O)c(O)cc12
inhibition [1]: 51%

SMILES: Cc1cn(-c2nccc3c2ccc(=O)n3C)cn1
inhibition [1]: 21%

SMILES: Cc1nccc2c1ccc(=O)n2C
inhibition [1]: 17%

Continued, values first:

inhibition [2]: 87% | IC50 [3]: 40 nM
SMILES: CCc1nccc2nc(O)ccc12

inhibition [1]: 13%
SMILES: Oc1ccc2c(-n3cnc(C(F)(F)F)c3)nccc2n1

inhibition [2]: 74% | IC50 [3]: 140 nM
SMILES: Oc1ccc2c(-c3ccco3)nccc2n1

inhibition [1]: 18%
SMILES: Cc1ncc([N+](=O)[O-])n1-c1nccc2nc(O)ccc12

inhibition [2]: 64% | IC50 [3]: 3200 nM
SMILES: COc1ccc(-c2nccc3nc(O)ccc23)cc1

inhibition [1]: 34%
SMILES: Cc1nccn1-c1nccc2nc(O)ccc12

inhibition [4]: 43%
SMILES: Oc1ccc2c(-n3cnc(Br)c3)nccc2n1

inhibition [1]: 28%
SMILES: Cc1ncn(-c2nccc3nc(O)ccc23)c1C

inhibition [1]: 30%
SMILES: Cc1cnn(-c2nccc3nc(O)ccc23)c1

inhibition [2]: 83% | IC50 [3]: 48 nM
SMILES: CCCc1nccc2nc(O)ccc12

inhibition [4]: 70% | IC50 [8]: 170 nM
SMILES: Oc1ccc2c(Br)nccc2n1

inhibition [1]: 58%
SMILES: OCc1cn(-c2nccc3nc(O)ccc23)cn1

inhibition [2]: 78% | IC50 [3]: 1400 nM
SMILES: Oc1ccc2c(-c3ccccc3)nccc2n1

inhibition [2]: 78% | IC50 [3]: 2200 nM
SMILES: Oc1ccc2c(-c3ccncc3)nccc2n1

inhibition [2]: 91% | IC50 [3]: 230 nM
SMILES: Nc1ccc(-c2nccc3nc(O)ccc23)cc1

inhibition [1]: 39%
SMILES: Oc1ccc2c(-n3cccn3)nccc2n1

inhibition [2]: 79% | IC50 [3]: 140 nM
SMILES: Oc1ccc2c(-c3cccs3)nccc2n1

inhibition [1]: 43%
SMILES: Oc1ccc2c(-n3cnc(-c4ccccc4)c3)nccc2n1

IC50 [7]: 600 nM | inhibition [1]: 81%
SMILES: Oc1ccc(-c2nccc3nc(O)ccc23)cc1

inhibition [2]: 81% | IC50 [3]: 570 nM
SMILES: CC(C)Cc1nccc2nc(O)ccc12

inhibition [1]: 56%
SMILES: Oc1ccc2c(-n3ccnc3)nccc2n1

inhibition [4]: 50%
SMILES: Oc1ccc2c(-n3cncn3)nccc2n1

inhibition [2]: 85% | IC50 [3]: 1420 nM
SMILES: CC(=O)c1nccc2nc(O)ccc12

inhibition [2]: 58% | IC50 [3]: 3700 nM
SMILES: OCc1nccc2nc(O)ccc12

inhibition [4]: 83% | IC50 [8]: 160 nM
SMILES: Oc1ccc2c(C(Cl)Cl)nccc2n1

inhibition [2]: 72% | IC50 [3]: 2800 nM
SMILES: Cc1cn(-c2nccc3nc(O)ccc23)cn1

inhibition [1]: 46%
SMILES: O=[N+]([O-])c1cn(-c2nccc3nc(O)ccc23)cn1

inhibition [1]: 39%
SMILES: Cc1ncn(-c2nccc3nc(O)ccc23)n1

Source: ChEMBL document CHEMBL1125567, “Novel cAMP PDE III inhibitors: 1,6-naphthyridin-2(1H)-ones” (J Med Chem, 1992)
